Test results as given in ChEMBL document CHEMBL1201862, “PubChem BioAssay data set” (2004).
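Following 48 hours of exposure in 96-well plates, responses at five concentrations were used to interpolate endpoints linearly. GI50 marks 50% less growth.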 The source made the active and inactive calls. No stated cut-off is given here; in the data, active = GI50 up to about 1.1 µM and inactive = higher. Where a SMILES comes first, the peptide text is derived from it. [ ]: non-standard residue; d: D form. The star is where a group is joined. ξ: configuration not given here. ξPhe(4-NO2) = NC(Cc1ccc([N+](=O)[O-])cc1)C(=O)O; Boc = CC(C)(C)OC(=O)*

Experiments:
Test in all cases: inhibition of tumour cell growth, NCI panel, 48 h
DU-145 = test system: DU-145
U-251 = test system: U-251
HOP-92 = test system: HOP-92
IGROV-1 = test system: IGROV-1
T47D = test system: T47D
HCC 2998 = test system: HCC 2998
HCT-116 = test system: HCT-116
A549 = test system: A549
SNB-19 = test system: SNB-19
MDA-MB-435 = test system: MDA-MB-435
TK-10 = test system: TK-10
SF-539 = test system: SF-539
MOLT-4 = test system: MOLT-4
OVCAR-5 = test system: OVCAR-5
NCI/ADR-RES = test system: NCI/ADR-RES
UACC-62 = test system: UACC-62
M14 = test system: M14
A498 = test system: A498

Measured: GI50

CCOP(=O)(OCC)C(NC(=O)C(C(F)(F)F)C(F)(F)F)c1ccccc1 (configuration not stated)
inactive: DU-145 > 100 µM | U-251 > 100 µM | HOP-92 > 100 µM | IGROV-1 > 100 µM | T47D 84.1 µM | HCC 2998 > 100 µM | HCT-116 > 100 µM | A549 > 100 µM | SNB-19 > 100 µM | MDA-MB-435 > 100 µM | TK-10 > 100 µM | SF-539 > 100 µM | MOLT-4 67.3 µM | OVCAR-5 > 100 µM | NCI/ADR-RES > 100 µM | UACC-62 > 100 µM | M14 > 100 µM

CN1CCCCC1CCN1CCCCC1 (configuration not stated)
inactive: DU-145 > 100 µM | A498 > 100 µM | U-251 > 100 µM | HOP-92 > 100 µM | IGROV-1 > 100 µM | T47D > 100 µM | HCC 2998 > 100 µM | HCT-116 > 100 µM | A549 > 100 µM | SNB-19 > 100 µM | MDA-MB-435 > 100 µM | TK-10 > 100 µM | MOLT-4 > 100 µM | OVCAR-5 > 100 µM | NCI/ADR-RES > 100 µM | UACC-62 > 100 µM | M14 > 100 µM

COC(=O)[C@H](Cc1ccccc1)NC(=O)N1CCN(C(=O)N[C@@H](Cc2ccccc2)C(=O)OC)CCN(C(=O)N[C@@H](Cc2ccccc2)C(=O)OC)CC1
inactive: DU-145 > 100 µM | A498 > 100 µM | U-251 > 100 µM | HOP-92 > 100 µM | IGROV-1 > 100 µM | T47D > 100 µM | HCC 2998 > 100 µM | HCT-116 > 100 µM | A549 > 100 µM | SNB-19 > 100 µM | MDA-MB-435 > 100 µM | TK-10 > 100 µM | MOLT-4 > 100 µM | OVCAR-5 > 100 µM | NCI/ADR-RES > 100 µM | UACC-62 > 100 µM | M14 > 100 µM

C#CCCCC(=O)N(C(=O)C[S+]([O-])CC)c1ccccc1 (configuration not stated)
inactive: DU-145 > 100 µM | U-251 > 100 µM | HOP-92 > 100 µM | IGROV-1 > 100 µM | T47D > 100 µM | HCC 2998 > 100 µM | HCT-116 > 100 µM | A549 > 100 µM | SNB-19 > 100 µM | MDA-MB-435 > 100 µM | TK-10 > 100 µM | SF-539 > 100 µM | MOLT-4 > 100 µM | OVCAR-5 > 100 µM | NCI/ADR-RES > 100 µM | UACC-62 > 100 µM | M14 > 100 µM

CC(=O)Nc1ccc(S(=O)(=O)[N-]C2C(=O)c3ccccc3C(=O)C2[n+]2ccccc2)cc1 (configuration not stated)
inactive: DU-145 > 100 µM | U-251 14.3 µM | HOP-92 17.4 µM | IGROV-1 15 µM | T47D 47.6 µM | HCC 2998 19.1 µM | HCT-116 > 100 µM | A549 19.5 µM | SNB-19 14.3 µM | MDA-MB-435 4.09 µM | TK-10 > 100 µM | SF-539 18.5 µM | MOLT-4 17.6 µM | OVCAR-5 17.7 µM | NCI/ADR-RES 17.1 µM | UACC-62 14.8 µM | M14 14.1 µM

CCNC(=O)CNC(=O)C(Cc1ccc([N+](=O)[O-])cc1)NC(=O)OC(C)(C)C (configuration not stated) (Boc-[ξPhe(4-NO2)]-Gly-NHEt)
inactive: DU-145 > 100 µM | A498 53.6 µM | U-251 > 100 µM | HOP-92 > 100 µM | IGROV-1 > 100 µM | T47D > 10 µM | HCC 2998 > 100 µM | HCT-116 > 100 µM | A549 > 100 µM | SNB-19 > 100 µM | MDA-MB-435 > 100 µM | TK-10 > 100 µM | MOLT-4 > 100 µM | OVCAR-5 > 100 µM | NCI/ADR-RES > 100 µM | UACC-62 > 100 µM | M14 > 100 µM
